Several values for one entry are separate records, joined by “and”; a condition that tells them apart may be missing. Equal entries are not always repeated. Bridge positions count the residues as written; N and C are the ends. Square brackets hold non-standard residues; d marks the D form. Ends that are not written are not given here. Peptide text beside a SMILES is read from it. I, II: the chains in the order shown. Ava = NCCCCC(=O)O; βAla = NCCC(=O)O
Tests used:
Assay type in all cases: cell-based
[1] = tested on: HIV-1 NL 4-3; assay: HIV-1 infection of C8166 cells (syncytia formation, p24 ELISA) with HIV-1 NL 4-3; conditions: for IC50: C8166 cells, HIV-1 subtype B NL 4-3, Table 3
Experimental: (§1) HIV-1 NL 4-3 isolate (Adachi et al., 1986; Barré-Sinoussi et al., 1983) and highly cytopathic Zairian HIV-1 NDK isolate (Ellrodt et al., 1984) was propagated in permissive CEM cells (Nara et al., 1987). Uninfected CEM and C8166 (Salahuddin et al., 1983) were maintained in RPMI 1640 (R10) with ultraglutamine (cambrex, Vervier, Belgium), penicillin (100 U/ml), streptomycin (100 μg/ml), and 10% heat-inactivated fetal calf serum (Cambrex).
(§2) Samples of 3×10^5/100 μL C8166 cells were preincubated in 96-well microtiter plates in culture medium containing various concentrations of peptide. After a 1 h treatment at 37° C., 100 μl of diluted viral solution of HIV-1 was added. The cells were exposed to the virus for 1 h at 37° C. at a multiplicity of infection of 1000 TCID50 per ml. The cells were washed three times and cultured at 3×10^5/ml of R10 with the treatment in 24-well plates incubated at 37° C. C8166 culture medium was replaced at Day-4 post-infection. The treatment was permanent before virus adsorption, during virus adsorption and after infection. Assays on C8166 cells have been performed at least twice and in duplicate. Toxicity was evaluated by daily cell count and trypan-blue exclusion assay. Infection of C8166 T-cells with HIV-1 was assessed by virus-induced cytopathic effects (syncytia formation) and by quantification of cell free p24 viral protein in the culture supernatants. Measurements of HIV-1 p24^gag concentration in the culture supernatants were achieved by ELISA (ALLIANCE® HIV-1 p24 kit, Perkin Elmer, life sciences, USA).

[2] = tested on: HIV-1 NL 4-3; assay: as above; parameters: key: ++, +, (+), (+)− and − represent decreasing numbers of syncitia formed.; ++, +, (+), (+)− and − represent decreasing numbers of syncitia formed.; ++, +, (+), (+)− and − represent decreasing numbers of syncitia formed.; ++, +, (+), (+)− and − represent decreasing numbers of syncitia formed.; ++, +, (+), (+)− and − represent decreasing numbers of syncitia formed; conditions: Table 2
Experimental: as §1, §2

[3] = tested on: HIV-1 NL 4-3; assay: as above; parameters: key: ++, +, (+), (+)− and − represent decreasing numbers of syncitia formed; ++, +, (+), (+)− and − represent decreasing numbers of syncitia formed; ++, +, (+), (+)− and − represent decreasing numbers of syncitia formed; ++, +, (+), (+)− and − represent decreasing numbers of syncitia formed; ++, +, (+), (+)− and − represent decreasing numbers of syncitia formed; conditions: Table 1
Experimental: as §1, §2

[4] = tested on: HIV-1 NL 4-3; assay: Infection of human peripheral blood lymphocytes (PBL) with NL 4-3 strain, p24 ELISA
Experimental: Peripheral blood lymphocytes from an HIV-1 negative donor were grown as described earlier, maintained in RPMI 1640 with ultraglutamine, supplemented with IL2 (20 μg/ml), penicillin (100 U/ml), streptomycin (100 μg/ml), and 10% heat-inactivated fetal calf serum. Cells were stimulated three days in the medium supplemented with phytohemagglutinin (20 U/ml PHA P, DIFCO, Detroit Mich.).
Samples of 10^6/100 μL PBL cells were preincubated in 96-well microtiter plates in culture medium containing various concentrations of peptides. After a 1 h treatment at 37° C., 100 μl of diluted viral solution of HIV-1 was added. The cells were exposed to the virus for 1 h at 37° C. at a multiplicity of infection of 1000 TCID50 per ml. The cells were washed three times and cultured at […] of medium with the treatment in 24-well plates incubated at 37° in culture medium with the peptides in 5% CO2. The treatment was permanent before virus adsorption, during virus adsorption and after infection. The PBL culture medium was replaced every 3-4 days during three weeks always in the presence of peptide. The cell viability was assessed by cell counts and trypan-blue exclusion assay. The viral production in the culture supernatant was quantified by p24 ELISA test, as described earlier. All the experiments have been done in blind-tests. Tests have been done in duplicate.

Molecule: Cc1cn([C@H]2C[C@H](N=[N+]=[N-])[C@@H](CO)O2)c(=O)[nH]c1=O [AZT, reference compound]
- P 24 ([1]; Day 4, 1 μM, Table 1): NEG
- P 24 ([1]; Day 4, 1 μM, Table 2): NEG
- P 24 ([1]; Day 7, 1 μM, Table 1): NEG
- Day 4 syncitia formed ([2]; 1 μM): −
- Day 5 syncitia formed ([2]; 1 μM): −
- Day 6 syncitia formed ([2]; 1 μM): −
- Day 7 syncitia formed ([2]; 1 μM): −
- Day 4 syncitia formed ([3]; 1 μM): −
- Day 5 syncitia formed ([3]; 1 μM): −
- Day 6 syncitia formed ([3]; 1 μM): −
- Day 7 syncitia formed ([3]; 1 μM): −

Molecule: CC(C)C[C@H](NC(=O)[C@@H]1CCCN1C(=O)[C@H](CO)NC(=O)[C@H](Cc1ccc(O)cc1)NC(=O)CNC(=O)[C@H](CCC(N)=O)NC(=O)[C@@H](N)CCCNC(=N)N)C(=O)NCCCC[C@H](NC(=O)[C@H](CC(C)C)NC(=O)[C@@H]1CCCN1C(=O)[C@H](CO)NC(=O)[C@H](Cc1ccc(O)cc1)NC(=O)CNC(=O)[C@H](CCC(N)=O)NC(=O)[C@@H](N)CCCNC(=N)N)C(=O)NCCC(=O)O [RL dimer, (RQGYSPL)2-K-βA, reference compound] (I: H-RQGYSPLK[βAla]-OH / II: H-RQGYSPL; amide I:8-II:C; N-terminus assumed)
- IC50 [1]: 20 nM
- IC50 ([4]; PBL, NL 4-3 strain, Table 4): 10 nM
- IC100 ([4]; PBL, NL 4-3 strain, Table 4): 0.1 µM

Molecule: N=C(N)NCCC[C@H](N)C(=O)N[C@@H](CCC(N)=O)C(=O)NCC(=O)N[C@@H](Cc1ccc(O)cc1)C(=O)N[C@@H](CO)C(=O)NCCCC[C@H](NC(=O)[C@H](CO)NC(=O)[C@H](Cc1ccc(O)cc1)NC(=O)CNC(=O)[C@H](CCC(N)=O)NC(=O)[C@@H](N)CCCNC(=N)N)C(=O)NCCCCC(=O)O [RS dimer valeric acid, (RQGYS)2-K—NHCH2CH2CH2CH2COOH] (I: H-RQGYSK[Ava]-OH / II: H-RQGYS; amide I:6-II:C)
- IC50 [1]: 50 nM

Molecule: N=C(N)NCCC[C@H](N)C(=O)N[C@@H](CCC(N)=O)C(=O)NCC(=O)N[C@@H](Cc1ccc(O)cc1)C(=O)N[C@@H](CO)C(=O)NCCCCC(=O)O [RS monomer valeric acid, RQGYS-NHCH2CH2CH2CH2COOH] (H-RQGYS[Ava]-OH)
- IC50 [1]: 200 nM

Molecule: N=C(N)NCCC[C@H](N)C(=O)N[C@@H](CCC(N)=O)C(=O)NCC(=O)N[C@@H](Cc1ccc(O)cc1)C(=O)N[C@@H](CO)C(=O)NCCCC[C@H](NC(=O)[C@H](CO)NC(=O)[C@H](Cc1ccc(O)cc1)NC(=O)CNC(=O)[C@H](CCC(N)=O)NC(=O)[C@@H](N)CCCNC(=N)N)C(=O)NCCC(=O)O [RS, (RQGYS)2-K-βA-OH, reference compound] (I: H-RQGYSK[βAla]-OH / II: H-RQGYS; amide I:6-II:C; N-terminus assumed)
- IC50 [1]: 100 nM

Molecule: GPGRAF [SPC3 monomer, GPGRAF, reference compound]
- IC50 [1]: > 10000 nM

Molecule: RQGYSPL [RL monomer, RQGYSPL, reference compound]
- IC50 [1]: 500 nM

Molecule: SPC3-(ε-aminocaproic acid) [S4]
- P 24 ([1]; Day 4, 0.5 μM, Table 1): 43 pg/mL and 28 pg/mL
- P 24 ([1]; Day 4, 2 μM, Table 1): 17 pg/mL and 14 pg/mL
- P 24 ([1]; Day 7, 0.5 μM, Table 1): 19801 pg/mL and 25000 pg/mL
- P 24 ([1]; Day 7, 1 μM, Table 1): 19801 pg/mL and 21640 pg/mL
- P 24 ([1]; Day 7, 2 μM, Table 1): 17872 pg/mL and 24806 pg/mL
- P 24 ([1]; Day 7, 5 μM, Table 1): 21120 pg/mL and 15674 pg/mL
- IC100 ([4]; on PBL): 0.5 µM
- Day 4 syncitia formed ([3]; 0.5 μM): −
- Day 5 syncitia formed ([3]; 0.5 μM): +
- Day 6 syncitia formed ([3]; 0.5 μM): +
- Day 7 syncitia formed ([3]; 0.5 μM): ++
- Day 4 syncitia formed ([3]; 1 μM): −
- Day 5 syncitia formed ([3]; 1 μM): +
- Day 6 syncitia formed ([3]; 1 μM): +
- Day 7 syncitia formed ([3]; 1 μM): ++
- Day 4 syncitia formed ([3]; 2 μM): −
- Day 5 syncitia formed ([3]; 2 μM): +
- Day 6 syncitia formed ([3]; 2 μM): +
- Day 7 syncitia formed ([3]; 2 μM): ++
- Day 4 syncitia formed ([3]; 5 μM): −
- Day 5 syncitia formed ([3]; 5 μM): +
- Day 6 syncitia formed ([3]; 5 μM): +
- Day 7 syncitia formed ([3]; 5 μM): ++

Molecule: SPC3-Kpam [S7]
- P 24 ([1]; Day 4, 5 μM, Table 2): NEG
- Day 4 syncitia formed ([2]; 1 μM): (+)
- Day 5 syncitia formed ([2]; 1 μM): +
- Day 6 syncitia formed ([2]; 1 μM): ++
- Day 7 syncitia formed ([2]; 1 μM): ++
- Day 4 syncitia formed ([2]; 5 μM): −
- Day 5 syncitia formed ([2]; 5 μM): −
- Day 6 syncitia formed ([2]; 5 μM): − and +
- Day 7 syncitia formed ([2]; 5 μM): + and ++

From patent US20060229433A1, “Modified antiviral peptides with increased activity and cell membrane affinity” (priority 2003, published 2006)
